This passage reports IC50 results from ChEMBL document CHEMBL3887008, “Pyrrolinone carboxamide compounds useful as endothelial lipase inhibitors” (2016).

The experiment addresses T1, Endothelial lipase (Homo sapiens, UniProt Q9Y5X9).
T1 sequence (Q9Y5X9 whole entry): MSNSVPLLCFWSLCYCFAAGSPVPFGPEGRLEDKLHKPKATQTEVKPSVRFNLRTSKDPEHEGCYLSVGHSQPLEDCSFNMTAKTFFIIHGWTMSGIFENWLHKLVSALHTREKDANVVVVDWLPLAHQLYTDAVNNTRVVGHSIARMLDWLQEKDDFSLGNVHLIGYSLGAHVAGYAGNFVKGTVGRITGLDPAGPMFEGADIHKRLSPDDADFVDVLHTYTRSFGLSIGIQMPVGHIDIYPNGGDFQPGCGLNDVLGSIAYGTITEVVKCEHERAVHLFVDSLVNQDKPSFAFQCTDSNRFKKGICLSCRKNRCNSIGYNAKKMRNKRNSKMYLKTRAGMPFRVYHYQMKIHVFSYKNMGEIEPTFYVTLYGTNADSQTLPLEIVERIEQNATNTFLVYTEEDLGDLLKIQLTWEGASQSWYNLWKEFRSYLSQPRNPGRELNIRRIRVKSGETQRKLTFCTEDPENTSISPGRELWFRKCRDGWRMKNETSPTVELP
Put plainly: Enzymatic Assay: Endothelial lipase activity was measured using a fluorescent substrate, A10070, (Invitrogen, CA) doped into an artificial vesicle containing DMPG (Avanti Polar Lipids) as the excipient. Vesicles were prepared by combining 285 uL of 1 mMDMPG in a 1:1 mixture of MeOH and CHCl3 with 15 uL of 1 mM A10070 in a 1:1 mixture of MeOH and CHCl3. The mixture was dried under nitrogen and resuspended in 150 uL of 50 mM HEPES pH 8.0 buffer containing 100 mM NaCl and 0.2 mM EDTA. The sample was allowed to sit at rt for 15 min and then was sonicated 3x4 mins on ice with a Branson Sonicator using duty cycle 1. This preparation provides vesicles with a mole fraction of 0.05 for the FRET substrate.The enzymatic assay was measured using white, opaque 96-well half area plates. Each well contained 60 uL of assay buffer (50 mM HEPES pH 8.0, 50 mM NaCl and 1 mM CaCl2) and 2 ul of a DMSO solution containing compound of interest. Conditioned media obtained from HT-1080 cells, which were transformed by RAGE technology (Athersys) to overexpress endogenous EL, was added and the reaction was allowed to incubate for 20 min at 37deg; C. with gentle agitation. The reaction was started by the addition of 20 uL of a 1:4 dilution of vesicles. The final total reaction volume was 100 uL. The reaction rates were measured on a Gemini plate reader with an excitation wavelength of 488 nm and a emission of 530 nm. Readings were taken every 20 seconds for 10 min with agitation between each reading. The slope of the linear portion of the readout was used to calculate the rate of the reaction. Type of experiment: cell-based.
As a reminder, the IC50 is the concentration needed to halve the response being measured. Turning to `CN1CC(C(=O)NCc2ccc(Oc3ccc(Cl)c(Cl)c3)cc2)=C(O)C1=O`, the IC50 is 27 nM.
For `CC(=O)Nc1ccc(-c2cccc([C@@H](C)NC(=O)C3=C(O)C(=O)N(c4ccc(F)cc4F)C3)c2)cc1` the value was 27.1 nM; for `CN1CC(C(=O)NCc2ccc(Oc3ccccc3)cc2)=C(O)C1=O`, 43 nM; for `CN1CC(C(=O)NCCCOc2cccc(Oc3ccccc3)c2)=C(O)C1=O`, 22.1 nM.
